Data taken from publication PMC8667925, “New 1,2,4-oxadiazole derivatives with positive mGlu4 receptor modulation activity and antipsychotic-like properties” (Journal of Enzyme Inhibition and Medicinal Chemistry, 2021).
Entries after “also recorded” stand apart in the source; their conditions may differ. Like-named read-outs stand apart in the source and are kept apart here. Marks after values point to notes of the source that are not given here.

Columns and labels:
mGlu8 receptor = target: T1, mGlu8 receptor (Homo sapiens, UniProt O00222); assay: cAMP accumulation assay in cells expressing mGlu8 receptor (agonist, PAM, NAM modes); type: cell-based; settings: 10 µM, agonist mode
T1 construct: mGlu4 receptor NM_000841, mGlu7 receptor NM_000844.2, and mGlu8 receptor NM_000845; expressed in transfected cells; host or cells: T-REx 293
Procedure: (§1) The compounds were tested in the agonist, PAM (in the presence of EC20 concentration of L-Glu) or NAM (with EC80 of L-Glu) modes of forskolin-induced cAMP using T-REx 293 cells expressing the protein of a given receptor.
(§2) Figure 4. The activity of compounds 34, 37, 49, 52, 60, 62 and reference drugs MMPIP (a selective NAM of mGlu7 receptor) and AZ12216052 (a PAM of mGlu8 receptor) tested at a concentration of 10 μM in the cAMP accumulation assay in cells expressing mGlu7 and mGlu8 receptors. The percent activity refers to two extreme FRET signals: 0% corresponds to forskolin treatment alone and 100% to maximal FRET signal for the control cells (without any treatment). A/D – agonistic activity; B/E – PAM activity measured in the presence of L-Glu at the EC20 concentration (0.1 mM for mGlu7 receptor, and 1 μM for mGlu8 receptor); C/F – NAM activity measured in the presence of L-Glu at the EC80 concentration (1 mM for mGlu7 receptor, 10 μM for Glu8 receptor).
(§3) Determination of the intracellular cAMP through a homogeneous time-resolved fluorescence (HTRF) cAMP dynamic 2 kit from Cisbio (Codolet, France) was described previously by Chruścicka et al.[91]. Briefly, cells were grown in DMEM supplemented with 10% foetal bovine serum (FBS) (tetracycline free). Forty-eight hours before the experiments, mGlu receptor expression was induced by the addition of 0.75 µg/mL tetracycline. Twenty hours before the experiment, FBS and L-Glu were removed from the medium. Thereafter, the cells were scraped and centrifuged. A cell pellet was suspended in Hanks-HEPES (130 mM NaCl, 5.4 mM KCl, 1.8 mM CaCl2, 0.8 mM MgSO4, 0.9 mM NaH2PO4, 20 mM HEPES, and 3.25 mM glucose; pH 7.4). Then, the cell suspension was incubated in the presence of 10 µM forskolin (or 3 µM forskolin for mGlu7 receptor), the agonist L-glutamate and a compound for 5 min. Next, 10 µl of the cell suspension was mixed with 5 µl of cAMP-d2 conjugate and 5 µL of anti-cAMP cryptate conjugate. After 1 h of incubation at rt, the fluorescence at 620 nm and 665 nm was read (Tecan Infinite M1000). The results were calculated as the 665 nm/620 nm ratio multiplied by 10^4. Each sample was prepared in triplicate.

Albino Swiss mice [1] = assay: DOI-induced head twitch test (HTR); type: in vivo; settings: over the doses 2.5, 5 and 10 mg/kg i.p.; DOI 2.5 mg/kg i.p.
Procedure: (§4) The compounds were dissolved in a small amount of 100% EtOH and then adjusted with 20% cyclodextrin, and the pH was adjusted to 6.0. The investigated compounds were administered intraperitoneally (i.p.) 60 min before the behavioural test. Control drugs i.e. diazepam, clozapine and imipramine (Sigma–Aldrich, St. Louis, USA), were administered i.p. 60 min before the behavioural test. Cyclodextrin (20%) was used as a vehicle. All solutions were prepared immediately prior to the experiments and were administered at a constant volume of 10 ml/kg.
The experiments were performed according to the procedure described in our previous studies[75]^,[80]. Briefly, to habituate mice to the experimental environment, each animal was transferred to a 12 cm (diameter) × 20 cm (height) glass cage lined with sawdust 30 min before treatment. Test compounds were administered intraperitoneally (i.p.) at doses of 2.5, 5, and 10 mg/kg body weight 60 min before the test was performed. The head twitch response (HTR) in mice was induced by DOI (2.5 mg/kg, i.p.). Immediately after treatment, the number of head twitches was counted during a 20 min session. Haloperidol and clozapine were used as the reference compounds at active doses of 0.2 and 5 mg/kg, respectively.

[2] = system: Salmonella typhimurium strains TA98 and TA100; type: cell-based; settings: TA98 and TA100, with and without S9, ≤ 30 µM
Procedure: The primary assessment of the cardiotoxic risk and mutagenic potential of the six selected 1,2,4-oxadiazole derivatives was performed in the hERG channel assay and the mini-AMES test, respectively. The mutagenicity potential was determined in strains TA98 (frameshift mutation) and TA100 (base-pair substitution) of Salmonella typhimurium in the presence and absence of an exogenous metabolic activation system (rat liver S9 fraction) containing mammalian microsomal enzymes.
The Ames microplate fluctuation protocol (MPF) assay was performed with Salmonella typhimurium strains TA98 and TA100, […]. The bacterial strain as well as the exposure and indicator medium were obtained from Xenometrix AG (Allschwil, Switzerland). […] After the addition of indicator medium, each well of the 24-well plate was aliquoted into 48 wells of a 384-well plate.
The occurrence of reversion events to histidine prototrophy was observed as the growth of bacteria in the indicator medium without histidine after 72 h of incubation at 37 °C. Bacterial growth in 384-well plates was visualised by a colour change of medium from violet to yellow due to the addition of pH indicator dye. The absorbance was measured with a microplate reader (EnSpire) at 420 nm. The reference mutagen NQNO (0.5 mM) was used as a positive control in the experiments. The medium control baseline (MCB) was calculated, as derived from the mean number of revertants in the medium control plus one standard deviation.
AMES test was conducted with two Salmonella typhimurium strains TA98 and TA100 in the presence or absence of liver homogenate S9 to simulate the metabolic conversions of tested compounds with liver enzymes. The AMES MPF 98/100 assay from Xenometrix was performed as described by the supplier. Data were analysed with the AMES MPF calculation […]
(also on this page, place not known: TA10 cal culation TA98 - S9 Revertants TA98 + S9 Revertants - S9 Revertants TA100 + S9 Revertants TA98 - S9 Revertants TA98 + S9 Revertants TA100 - S9 Revertants 0 TA100 + S9 Revertants)

mGlu4 receptor [3] = target: T2, mGlu4 receptor (Homo sapiens, UniProt Q14833); assay: forskolin-stimulated cAMP assay, PAM mode (EC20 of L-Glu), T-REx 293 cells; type: cell-based; settings: SEM where given; for EC50 / Emax: PAM mode; for EC50: EC20 (3 µM) L-Glu, T-REx 293 cells expressing human mGlu4 receptor; for Emax: T-REx-293, human mGlu4, read-out: GluMax; for Fold shift of L-Glu dose-response curve: in the presence of 10 µM of compound
T2 construct: mGlu4 receptor NM_000841, mGlu7 receptor NM_000844.2, and mGlu8 receptor NM_000845; expressed in transfected cells; host or cells: T-REx 293
Procedure: The activity of the compounds was assessed in vitro in a forskolin-stimulated cAMP assay in T-REx 293 cells expressing human mGlu4 receptors in the presence of an EC20 concentration of L-Glu; a PAM was identified if it potentiated cAMP inhibition by the Gi/o-dependent pathway of mGlu4 receptor activation; i.e. if it was able to produce a leftward shift in the potency of the endogenous agonist.
as §3
Statistical calculations were performed using GraphPad Prism 5.04 software (GraphPad Software, La Jolla, CA, USA). The curves were fitted to a 3-parametric logistic equation, allowing for the determination of EC50 values. Each data point was analysed in triplicate.

mGlu4 receptor [4] = target: T2, mGlu4 receptor; assay: forskolin-induced cAMP assay, agonist mode, T-REx 293 cells; type: cell-based
Procedure: as §1, §3

Albino Swiss mice [5] = assay: modified stress-induced hyperthermia (SIH) in singly housed mice; type: in vivo; settings: over the doses 5, 10 and 20 mg/kg i.p.
Procedure: as §4
The procedure for modified stress-induced hyperthermia was adapted from Van der Heyden[93] and based on the procedure introduced by Borsini[94]. Each experimental group consisted of eight to ten animals. The animals were housed individually in a 26 × 21 × 14 cm Macolon cage 24 h before testing. For this assay, the body temperature was measured for each mouse at t = 0 min (T1) and t = +15 min (T2). Albino Swiss mice were placed into a new cage immediately following T1, with the difference in temperature (T2−T1) used as the measure of stress-induced hyperthermia. […] A comparison between T1 in vehicle-treated mice and those administered the test compound was used to determine whether the agent affects body temperature alone. Diazepam (5 mg/kg) was used as the positive control. The rectal temperature was measured to the nearest 0.1 °C with a Physitemp Theralert thermometer, TH-5, Clifton NJ, USA, with the temperature sensor for mice, Type T, Copper-Constantan Thermocouple, Braintree Scientific Inc. The lubricated thermistor probe (2 mm diameter) was inserted 20 mm into the rectum. The mouse was held at the base of the tail during this determination, and the thermistor probe was left in place until a constant reading was obtained for 15 s. The effects of the investigated compounds on the SIH response were investigated after administration of the compounds at doses of 5, 10 and 20 mg/kg.

mGlu7 receptor = target: T3, mGlu7 receptor (Homo sapiens, UniProt Q14831); assay: cAMP accumulation assay in cells expressing mGlu7 receptor (agonist, PAM, NAM modes); type: cell-based; settings: 10 µM, agonist mode
T3 construct: mGlu4 receptor NM_000841, mGlu7 receptor NM_000844.2, and mGlu8 receptor NM_000845; expressed in transfected cells; host or cells: T-REx 293
Procedure: as §1, §2, §3

mGlu4 receptor [6] = settings: cited from earlier work
[7] = system: untransfected cells of the T-REx 293 line; assay: forskolin-induced cAMP accumulation in untransfected (mock) cells, control experiment; type: cell-based; settings: untransfected T-REx 293 cells
Procedure: 2. In vitro mGlu receptor selectivity profile
Figure S1. Activity of compounds 34, 37, 49, 52, 60 and 62 in forskolin -induced cAMP accumulation in untransfected cells of the T-REx 293 line. Similar to reference mGlu4 receptor […]
cAMP assay in the mock T-REx 293 cell line. […]
receptor used as reference drug) tested at a concentration of 10 μM in NAM mode (in the presence of EC80 concentration of L-Glu (30 μM)) by the cAMP accumulation assay in cells expressing mGlu4 receptor. […]

DOI-induced HTR = system: DOI-induced HTR; set-up: method as in PMID 24947466; settings: medium dose of 3, 10 and 30 mg/kg; cited from earlier work

T2 sequence (Q14833 33-912): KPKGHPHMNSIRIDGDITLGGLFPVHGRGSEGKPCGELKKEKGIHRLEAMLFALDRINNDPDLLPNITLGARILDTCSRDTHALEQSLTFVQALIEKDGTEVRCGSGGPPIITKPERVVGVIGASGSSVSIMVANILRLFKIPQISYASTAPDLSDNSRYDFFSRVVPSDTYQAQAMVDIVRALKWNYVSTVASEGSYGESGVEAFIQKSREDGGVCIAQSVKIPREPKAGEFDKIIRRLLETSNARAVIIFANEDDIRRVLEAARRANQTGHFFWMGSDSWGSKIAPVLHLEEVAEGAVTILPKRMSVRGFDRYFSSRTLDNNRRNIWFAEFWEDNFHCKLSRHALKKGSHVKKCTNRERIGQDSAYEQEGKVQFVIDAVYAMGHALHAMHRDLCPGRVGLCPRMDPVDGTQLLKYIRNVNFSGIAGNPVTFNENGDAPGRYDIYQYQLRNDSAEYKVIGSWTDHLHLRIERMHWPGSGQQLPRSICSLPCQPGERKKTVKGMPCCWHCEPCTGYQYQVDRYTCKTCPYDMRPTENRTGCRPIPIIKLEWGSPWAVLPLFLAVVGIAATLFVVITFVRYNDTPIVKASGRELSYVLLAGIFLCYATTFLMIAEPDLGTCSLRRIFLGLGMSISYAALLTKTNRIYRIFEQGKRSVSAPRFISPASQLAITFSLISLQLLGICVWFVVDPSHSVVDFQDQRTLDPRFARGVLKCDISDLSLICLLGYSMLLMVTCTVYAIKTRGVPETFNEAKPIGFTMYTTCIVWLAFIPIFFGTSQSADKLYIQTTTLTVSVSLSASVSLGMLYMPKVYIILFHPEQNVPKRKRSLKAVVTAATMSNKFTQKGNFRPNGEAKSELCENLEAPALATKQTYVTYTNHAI
T3 sequence (Q14831 35-915): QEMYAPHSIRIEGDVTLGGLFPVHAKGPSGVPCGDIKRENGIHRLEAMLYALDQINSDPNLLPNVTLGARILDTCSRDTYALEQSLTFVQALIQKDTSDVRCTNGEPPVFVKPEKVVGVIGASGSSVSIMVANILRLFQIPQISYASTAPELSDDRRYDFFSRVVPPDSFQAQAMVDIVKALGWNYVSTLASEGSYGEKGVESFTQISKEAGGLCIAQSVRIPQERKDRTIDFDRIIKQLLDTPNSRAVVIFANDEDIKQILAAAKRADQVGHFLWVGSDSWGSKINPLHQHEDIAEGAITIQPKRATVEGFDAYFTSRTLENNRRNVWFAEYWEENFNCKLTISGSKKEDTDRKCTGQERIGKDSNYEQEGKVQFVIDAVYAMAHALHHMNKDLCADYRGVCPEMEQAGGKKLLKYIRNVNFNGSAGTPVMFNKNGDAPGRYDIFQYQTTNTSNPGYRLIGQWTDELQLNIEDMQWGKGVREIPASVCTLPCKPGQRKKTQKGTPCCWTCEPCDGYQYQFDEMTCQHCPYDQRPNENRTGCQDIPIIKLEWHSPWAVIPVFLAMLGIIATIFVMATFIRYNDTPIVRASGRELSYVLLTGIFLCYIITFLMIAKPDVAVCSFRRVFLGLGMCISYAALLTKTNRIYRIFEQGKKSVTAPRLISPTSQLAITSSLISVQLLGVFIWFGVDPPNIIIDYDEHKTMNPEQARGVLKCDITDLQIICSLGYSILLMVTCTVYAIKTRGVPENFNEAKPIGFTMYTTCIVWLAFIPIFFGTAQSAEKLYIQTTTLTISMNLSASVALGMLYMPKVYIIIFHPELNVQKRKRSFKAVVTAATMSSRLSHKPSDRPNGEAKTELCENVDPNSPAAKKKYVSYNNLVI
T1 sequence (O00222 34-908): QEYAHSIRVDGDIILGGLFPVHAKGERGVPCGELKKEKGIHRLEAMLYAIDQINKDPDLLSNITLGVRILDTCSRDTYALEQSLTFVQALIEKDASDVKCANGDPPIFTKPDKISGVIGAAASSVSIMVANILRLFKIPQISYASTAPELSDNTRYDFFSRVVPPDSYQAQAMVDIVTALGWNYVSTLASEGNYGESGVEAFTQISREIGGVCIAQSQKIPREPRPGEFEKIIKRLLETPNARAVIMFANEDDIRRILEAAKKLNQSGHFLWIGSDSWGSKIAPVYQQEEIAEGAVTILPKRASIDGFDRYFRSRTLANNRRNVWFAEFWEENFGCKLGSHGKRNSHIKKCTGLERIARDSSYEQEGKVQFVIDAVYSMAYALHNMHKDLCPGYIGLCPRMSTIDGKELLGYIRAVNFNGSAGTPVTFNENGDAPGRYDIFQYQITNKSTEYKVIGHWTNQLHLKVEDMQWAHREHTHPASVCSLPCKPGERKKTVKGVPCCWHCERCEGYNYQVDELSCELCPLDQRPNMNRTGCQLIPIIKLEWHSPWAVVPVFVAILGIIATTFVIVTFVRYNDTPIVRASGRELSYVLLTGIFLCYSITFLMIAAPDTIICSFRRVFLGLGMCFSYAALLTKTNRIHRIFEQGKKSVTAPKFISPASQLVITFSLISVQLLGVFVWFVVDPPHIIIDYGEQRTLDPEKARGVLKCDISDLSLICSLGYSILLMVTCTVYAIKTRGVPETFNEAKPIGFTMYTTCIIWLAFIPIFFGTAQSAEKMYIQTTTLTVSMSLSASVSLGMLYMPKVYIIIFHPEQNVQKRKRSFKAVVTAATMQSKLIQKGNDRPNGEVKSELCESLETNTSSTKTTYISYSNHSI

Cc1cc(NC(=O)c2ccccn2)ccc1-c1noc(-c2ccccc2Cl)n1 [Compound 62, N-(4-(5-(2-chlorophenyl)-1,2,4-oxadiazol-3-yl)-3-methylphenyl)picolinamide]
agonistic activity at mGlu8 receptor (mGlu8 receptor): lacked agonistic action
effect on DOI-induced HTR (Albino Swiss mice [1]): significant anxiolytic- and antipsychotic-like properties; also recorded: at all doses significantly reduced; also recorded: Clear dose-response effects; also recorded: clear dose-dependent response and high potency; also recorded: comparable to that of clozapine
mutagenic activity (mini-AMES) [2]: no mutagenic potential
EC50 (mGlu4 receptor [3]): 308 nM
Emax (mGlu4 receptor [3]): 135%
Fold shift of L-Glu dose-response curve (mGlu4 receptor [3]): 3.3 (0.34)^d
agonistic action at mGlu4 receptor (mGlu4 receptor [4]): lacked agonistic action
effect on SIH response (Albino Swiss mice [5]): significant anxiolytic- and antipsychotic-like properties; also recorded: significantly reduced SIH responses at all three doses; also recorded: at all doses significantly reduced the SIH response
agonistic activity at mGlu7 receptor (mGlu7 receptor): lacked agonistic action

O=C(Nc1cc(Cl)cc(Cl)c1)[C@H]1CCCC[C@H]1C(=O)O [VU0155041]
EC50 (mGlu4 receptor [6]; reference ago-PAM, read-out: agonist activity at mGlu4 receptor, EC50): 2500 nM
effect on forskolin-induced cAMP accumulation in mock cells [7]: no effects

Cc1ccnc(Nc2nc(-c3cn[nH]c3)c(C)s2)n1 [ADX88178]
reduction of DOI-induced HTR (DOI-induced HTR): ≤ 30%

FC(F)(F)c1nccc2cc(Nc3n[nH]c4ncccc34)ccc12 [Valiglurax]
EC50 (mGlu4 receptor [6]; PAM, read-out: mGlu4 receptor PAM potency EC50): 64.6 nM

O=C(Nc1ccc(-c2noc(-c3ccccc3)n2)c(Cl)c1)c1ccccn1 [Compound 49]
effect on DOI-induced HTR (Albino Swiss mice [1]): not effective; also recorded: no influence
mutagenic activity (mini-AMES) [2]: no mutagenic potential
EC50 (mGlu4 receptor [3]): 352 nM
Emax (mGlu4 receptor [3]): 123%
Fold shift of L-Glu dose-response curve (mGlu4 receptor [3]): 6.77 (0.53)^d
effect on SIH response (Albino Swiss mice [5]): not effective
agonistic activity at mGlu7 receptor (mGlu7 receptor): direct agonistic activity

O/N=c1\cc(-c2cc3sccc3cn2)oc2ccc(CCCN3CCOCC3)cc12 [PXT002331]
EC50 (mGlu4 receptor [6]; PAM, read-out: mGlu4 PAM potency EC50): 46 nM

O=C(Nc1ccccn1)C12CC1C(=NO)c1ccccc1O2 (centres unmarked) [VU0359516]
EC50 (mGlu4 receptor [6]; PAM, read-out: EC50 (mGlu4 receptor PAM)): 380 nM
